Source: US9696323B2, “Biomarkers for chagas disease related cardiomyopathy” (THE BOARD OF REGENTS OF THE UNIVERSITY OF TEXAS SYSTEM, priority 2013, dated 2017)

Tested on: T. cruzi
Test: 2D-GE plasma proteome profile (differential protein expression) of T. cruzi-infected rats treated with PBN and/or BZ
Format: in vivo, rat
Conditions: plasma
From the text: Certain embodiments include biomarkers identified in a previous study. Parasite persistence and oxidative damage in the heart are known to be of pathological significance during Chagas disease (Zacks et al., (2005) An Acad Bras Cienc, 77, 695-715; Gupta et al., (2009) Interdiscip Perspect Infect Dis, 2009, 190354). […] In the previous study the inventors identified 92 proteins that were differentially expressed or oxidized in chagasic plasma. Functional analysis allocated a majority of these proteins to inflammation/immunity and lipid metabolism categories, and to molecular pathways associated with cardiovascular dysfunction, e.g., myocardial infarction, hypertrophy, and fibrosis, and pulmonary embolism and hypertension. Some proteins in chagasic rats treated with PBN and/or BZ were allocated to curative pathways (immune regulation and cardiac remodeling). The 2D-GE results were validated by Western blotting. […] Increased plasma levels of GSN, MYL2, and VIM were directly correlated with the severity of cardiac disease in human chagasic patients. […] These findings have utility in diagnosing disease severity and designing suitable therapy for management of human chagasic patients.
Ingenuity Pathway Analysis (IPA) is a highly curated and comprehensive software used for the integration of proteins into networks and pathways with biological meaning (Thomas and Bonchev, (2010). Hum Genomics, 4, 353-360). Network analysis of the plasma proteome profile of chagasic rats identified four major sub-networks linked to host response to T. cruzi infection and disease development (Table V). The maximal numbers of the differentially expressed plasma proteins (19 proteins) in chagasic rats were associated with antigen presentation and inflammatory response category (Table V) and indicators of persistent inflammation, known to be of pathological significance in Chagas disease (Dhiman et al., (2009) Clinical and Vaccine Immunology, 16, 660-666; Tanowitz et al., (2009) Prog Cardiovasc Dis, 51, 524-539; Junqueira et al., (2010) Expert Rev Mol Med, 12, e29). Following functional analysis of the inflammation-associated proteins, 12 proteins (APOA1, APOE, C3, CFB, CFH, FGB, GSN, KRT10, PLG, SCG2, SERPINA1, and SERPINC1) were identified as being involved in immune cell trafficking and cell movement of leukocytes, granulocytes, phagocytes, neutrophils, and dendritic and antigen presenting cells. Some of the differentially expressed proteins in inflammation category were associated with activation (APOE, C3, CFH, GC and PLG), chemotaxis (C3, SCG2, SERPINA1, SERPINC1), and infiltration of leukocytes (APOA1, APOE, C3, PLG, KRT10) and neutrophils (C3, CFB, CFH, PLG). Up regulation of APOE, APOA1, APOH, GC and PLG in chagasic plasma was indicative of activation, binding and accumulation of macrophages in the disease state. Of the 19 differentially expressed inflammation-associated proteins, 11 proteins (APOE, C3, CFB, CFH, GSN, KRT10, SCG2, SERPINA1, SERPINC1, GC, and PLG) were carbonylated in chagasic plasma. […] Other proteins (APOE, C3, KRT3, and SCG2) were exposed to oxidation due to T. cruzi-induced, acute oxidative stress, but were normalized in expression and oxidation during the chronic phase.
Seventeen of the differentially expressed proteins in chagasic plasma, i.e., AFM, C4BPA, CACNA1D, DLGAP2, GC, KNG1, MUG1, MYLPF, MY05A, MY05B, PRPH, PZP, RAI14, and SCG2, were allotted to the lipid metabolism/molecular transport/small molecule biochemistry category (Table V) and functionally linked by IPA network analysis to lipid, fatty acid, and carbohydrate metabolism. A majority of the proteins in this category, i.e., ALB, APOA1, APOA4, APOE, APOH, C3, GC, GNAQ, MY05A, PLG, SCD2, SERPINA1, SERPINC1 and VIM, were linked to the synthesis, metabolism, transport, and modification of lipids and fatty acids, and to uptake and release or efflux of lipids, eicosanoids, and cholesterol. […]

[1] = RCP/RCB/RCPB groups (chronic infection)

## CC(C)(C)/[N+]([O-])=C/c1ccccc1 [PBN]
RAP group (acute infection)
  Spot# 979 Average Normalized Density × 100,000: 59.46
  Spot# 992 Average Normalized Density × 100,000: 34.51
[1]
  Spot# 12, 180 Average Normalized Density × 100,000: 7.22
  Spot# 34 Average Normalized Density × 100,000: 0.45
  Spot# 37, 593 Average Normalized Density × 100,000: 6.48
  Spot# 49, 673 Average Normalized Density × 100,000: 13.39
  Spot# 52, 54, 302 Average Normalized Density × 100,000: 14.45
  Spot# 53, 225 Average Normalized Density × 100,000: 15.12
  Spot# 72 Average Normalized Density × 100,000: 16.43
  Spot# 73, 705, 787 Average Normalized Density × 100,000: 38.67
  Spot# 77 Average Normalized Density × 100,000: 8.675
  Spot# 88 Average Normalized Density × 100,000: 40.49
  Spot# 94 Average Normalized Density × 100,000: 2.55
  Spot# 115, 123 Average Normalized Density × 100,000: 10.96
  Spot# 149 Average Normalized Density × 100,000: 4.39
  Spot# 153 Average Normalized Density × 100,000: 10.34
  Spot# 177 Average Normalized Density × 100,000: 1.60
  Spot# 181 Average Normalized Density × 100,000: 1.90
  Spot# 184, 257, 328 Average Normalized Density × 100,000: 5.85
  Spot# 207, 555 Average Normalized Density × 100,000: 9.12
  Spot# 215 Average Normalized Density × 100,000: 1.97
  Spot# 266 Average Normalized Density × 100,000: 0.54
  Spot# 299 Average Normalized Density × 100,000: 1.17
  Spot# 315 Average Normalized Density × 100,000: 8.23
  Spot# 334 Average Normalized Density × 100,000: 0.71
  Spot# 341 Average Normalized Density × 100,000: 1.10
  Spot# 355, 359 Average Normalized Density × 100,000: 2.20
  Spot# 382, 385, 378, 572, 578, 595 Average Normalized Density × 100,000: 3.29
  Spot# 389 Average Normalized Density × 100,000: 4.32
  Spot# 430 Average Normalized Density × 100,000: 8.21
  Spot# 434, 678 Average Normalized Density × 100,000: 24.63
  Spot# 439 Average Normalized Density × 100,000: 14.99
  Spot# 452 Average Normalized Density × 100,000: 10.01
  Spot# 464 Average Normalized Density × 100,000: 6.65
  Spot# 479 Average Normalized Density × 100,000: 32.56
  Spot# 493 Average Normalized Density × 100,000: 13.46
  Spot# 515 Average Normalized Density × 100,000: 7.78
  Spot# 524 Average Normalized Density × 100,000: 21.96
  Spot# 551, 587, 908 Average Normalized Density × 100,000: 54.1
  Spot# 559 Average Normalized Density × 100,000: 27.58
  Spot# 571 Average Normalized Density × 100,000: 38.63
  Spot# 576, 620 Average Normalized Density × 100,000: 16.66
  Spot# 586, 614 Average Normalized Density × 100,000: 38.00
  Spot# 592 Average Normalized Density × 100,000: 31.55
  Spot# 604 Average Normalized Density × 100,000: 23.66
  Spot# 606 Average Normalized Density × 100,000: 5.58
  Spot# 627 Average Normalized Density × 100,000: 54.85
  Spot# 638 Average Normalized Density × 100,000: 5.92
  Spot# 649 Average Normalized Density × 100,000: 37.11
  Spot# 651 Average Normalized Density × 100,000: 57.85
  Spot# 655 Average Normalized Density × 100,000: 149.20
  Spot# 672 Average Normalized Density × 100,000: 17.65
  Spot# 676 Average Normalized Density × 100,000: 42.59
  Spot# 691 Average Normalized Density × 100,000: 16.29
  Spot# 715 Average Normalized Density × 100,000: 32.20
  Spot# 724 Average Normalized Density × 100,000: 2.23
  Spot# 728 Average Normalized Density × 100,000: 1.13
  Spot# 733 Average Normalized Density × 100,000: 2.44
  Spot# 740 Average Normalized Density × 100,000: 7.33
  Spot# 745 Average Normalized Density × 100,000: 3.21
  Spot# 749 Average Normalized Density × 100,000: 1.70
  Spot# 766 Average Normalized Density × 100,000: 6.32
  Spot# 779, 909 Average Normalized Density × 100,000: 6.88
  Spot# 796 Average Normalized Density × 100,000: 8.33
  Spot# 814 Average Normalized Density × 100,000: 1.56
  Spot# 817 Average Normalized Density × 100,000: 29.59
  Spot# 820, 1081 Average Normalized Density × 100,000: 2.20
  Spot# 827 Average Normalized Density × 100,000: 17.80
  Spot# 832 Average Normalized Density × 100,000: 7.55
  Spot# 860 Average Normalized Density × 100,000: 5.79
  Spot# 867 Average Normalized Density × 100,000: 3.00
  Spot# 881 Average Normalized Density × 100,000: 6.68
  Spot# 897 Average Normalized Density × 100,000: 31.94
  Spot# 900 Average Normalized Density × 100,000: 44.00
  Spot# 906 Average Normalized Density × 100,000: 87.74
  Spot# 966 Average Normalized Density × 100,000: 59.29
  Spot# 979 Average Normalized Density × 100,000: 41.38
  Spot# 992 Average Normalized Density × 100,000: 57.94
